The text below walks through data of patent US20060160775A1, “Combination therapy” (priority 2003, published 2006).

For one experiment, the system named is tumour models. Kind of experiment: Anti-tumour activity in a range of models. The format is in vivo. To be noted: once-daily oral administration.
In experiment [1] the test system is Human LoVo colorectal carcinoma tumour xenografts. Kind of experiment: Human LoVo colorectal carcinoma tumour xenografts in nude mice. It counts as in vivo, athymic (nu/nu genotype) mouse. To be noted: for Number of tumour regressions evident at day 14: groups of nine; for Mean % Inhibition of tumour growth at day 14: vs vehicle control. As for the experimental part:
Human LoVo Colorectal Carcinoma Tumour Xenografts in Nude Mice
1×10^7 LoVo tumour cells in 0.1 ml of serum free Dulbecco's Modified Eagle's Medium (DMEM) were injected subcutaneously (s.c.) into the flank of each athymic (nu/nu genotype) mouse. Tumour volumes were assessed by bilateral Vernier caliper measurement and, taking length to be the longest diameter across the tumour and width the corresponding perpendicular, calculated using the formula (length×width)×the square root of (length×width)×(π/6). […] ZD6126 was dissolved in a solution of 0.05% sodium carbonate in physiological saline and administered by intraperitoneal injection at 0.1 ml/10 g body weight. […] Inhibition of tumour growth from the start of treatment was assessed on day 14 by comparison of the differences in tumor volume between control and treated groups. In addition, the number of tumour regressions following 14 days of treatment was ascertained (tumour regression being evident if the tumour volume at day 14 was smaller than the pre-treatment value on day 0).

The test system of a further experiment is tumour vasculature. The conditions noted are these: in vivo; cited from earlier work.
[2] abbreviates: AZD2171 alone, 3 mg/kg/day, days 0-14, p.o.
[3] abbreviates: ZD6126 alone, 100 mg/kg/day, days 0-2, i.p.

Take `COc1cc2c(Oc3ccc4[nH]c(C)cc4c3F)ncnc2cc1OCCCN1CCCC1` [AZD2171, 4-(4-fluoro-2-methylindol-5-yloxy)-6-methoxy-7-(3-(pyrrolidin-1-yl)propoxy)quinazoline]: in the experiment with tumour models, the Anti-tumour activity result is reported as “broad-spectrum anti-tumour activity”. In experiment [1] (setting [2]), the “Number of tumour regressions evident at day 14” value was 0/9 and the “Mean % Inhibition of tumour growth at day 14” value is 62% (P < 0.001).
For the compound `COc1cc2c(c(OC)c1OC)-c1ccc(OP(=O)(O)O)cc1[C@@H](NC(C)=O)CC2` [ZD6126, (5S)-5-(acetylamino)-9,10,11-trimethoxy-6,7-dihydro-5H-dibenzo[a,c]cyclohepten-3-yl dihydrogen phosphate], in experiment [1] (setting [3]), the “Number of tumour regressions evident at day 14” value was 1/9 and the “Mean % Inhibition of tumour growth at day 14” value was 65% (P < 0.001). The “Effect on tumour vasculature” value with tumour vasculature is “selectively disrupts tumour vasculature leading to vessel occlusion and extensive tumour necrosis”.
